Activity calls are given as the source filed them. No cut-off for these calls is given here.
Legend:
[1] = Cytotoxicity against rat R28 cells assessed as reduction in cell viability at 10 uM after 4 days by MTS assay; assay type: cell-based; settings: 96 h
[2] = organism: Rattus norvegicus; assay: Activation of CIRBP protein expression in rat R28 cells at 10 uM at 37 degC after 4 days by Western blot; assay type: functional, cell-based
[3] = system: Rattus norvegicus; assay: Up regulation of CIRBP protein expression in Sprague-Dawley albino rat testis at 20 nmol/kg, ip measured after 4 days post dose by Western blot analysis; assay type: functional, organism-based
[4] = system: Rattus norvegicus; assay: Up regulation of CIRBP protein expression in Sprague-Dawley albino rat central nervous system at 20 nmol/kg, ip measured after 4 days post dose by Western blot analysis; assay type: functional, organism-based
[5] = system: Rattus norvegicus; assay: Up regulation of CIRBP protein expression in Sprague-Dawley albino rat pancreas at 20 nmol/kg, ip measured after 4 days post dose by Western blot analysis; assay type: functional, organism-based
[6] = system: Rattus norvegicus; assay: Up regulation of CIRBP protein expression in Sprague-Dawley albino rat subcutaneous fat tissue at 20 nmol/kg, ip measured after 4 days post dose by Western blot analysis; assay type: functional, organism-based
[7] = system: Rattus norvegicus; assay: Up regulation of CIRBP protein expression in Sprague-Dawley albino rat brain cortex at 20 nmol/kg, ip measured after 4 days post dose by Western blot analysis; assay type: functional, organism-based
[8] = system: Rattus norvegicus; assay: Up regulation of CIRBP protein expression in Sprague-Dawley albino rat retina at 20 nmol/kg, ip measured after 4 days post dose by Western blot analysis; assay type: functional, organism-based
[9] = system: Rattus norvegicus; assay: Up regulation of CIRBP protein expression in Sprague-Dawley albino rat colon at 20 nmol/kg, ip measured after 4 days post dose by Western blot analysis; assay type: functional, organism-based
[10] = system: Rattus norvegicus; assay: Up regulation of CIRBP protein expression in Sprague-Dawley albino rat heart at 20 nmol/kg, ip measured after 4 days post dose by Western blot analysis; assay type: functional, organism-based
[11] = system: Rattus norvegicus; assay: Up regulation of CIRBP protein expression in Sprague-Dawley albino rat lung at 20 nmol/kg, ip measured after 4 days post dose by Western blot analysis; assay type: functional, organism-based
[12] = Cytotoxicity against rat R28 cells assessed as reduction in cell viability at 250 uM after 4 days by MTS assay; assay type: cell-based; settings: 96 h

SMILES	Activity [2]	other results
COc1cccc2c1C(=O)c1c(O)c3c(c(O)c1C2=O)CC(O)(/C(C)=N/O)CC3CC1CC(N)C(O)C(C)O1 (stereo not given)		Activity [1]: Toxic
OCc1ncccc1O	inactive	
Oc1cc(NCC2CCCCC2)c(O)cc1CNC1CCCCC1	inactive	
COCCn1cnc2c(SCC(=O)OC)nc(N)nc21	inactive	
Nc1nc(SCC(=O)O)c2ncn(Cc3ccccc3)c2n1	inactive	
COC(=O)CSc1nc(N)nc2c1ncn2Cc1ccc(OC)cc1	inactive	
COC(=O)CSc1nc(N)nc2c1ncn2Cc1ccccc1	Active	
Nc1ncnc2c1ncn2[C@@H]1O[C@H](CO)[C@H](O)[C@@H]1N	inactive	
COC(=O)CSc1nc(N)nc2c1ncn2CCO	inactive	
CC1(C)N=C(N)N=C(N)N1c1cccc(CN)c1	inactive	
COC(=O)C1C[C@@H](O)[C@@H](O)[C@@H](O)C1 (stereo not given in full)	inactive	
CCN(CC)CCn1cnc2c(SCC(=O)O)nc(N)nc21	Active	Activity [3]: Active; Activity [4]: inactive; Activity [5]: Active; Activity [6]: Active; Activity [7]: inactive; Activity [8]: inactive; Activity [9]: Active; Activity [10]: Active; Activity [11]: Active; Activity [12]: Non-Toxic
Cc1cc(O)ccc1-n1cc(-c2cccc(O)c2)nn1	inactive	
NC(=O)Oc1cccc(OC(N)=O)c1	inactive	
O=C(O)c1cc(-n2cc(-c3cccc(O)c3)nn2)ccc1O	inactive	
N=C(N)NC(=N)Nc1ccc(O)cc1	inactive	
C=CCn1cnc2c(SCC(=O)OC)nc(N)nc21	inactive	
O=C(NO)[C@@H](Cc1ccccc1)NS(=O)(=O)c1ccc(-n2cc(-c3ccc(Oc4ccccc4)cc3)nn2)cc1		Activity [1]: Toxic
Oc1cccc(-c2cn(-c3ccc(O)c(F)c3)nn2)c1	Active	
Cc1cc(-n2cc(-c3ccc(O)cc3)nn2)ccc1O	Active	
O=C(/C=C/c1ccc(O)c(O)c1)OC1C(O)CC(OC(=O)/C=C/c2ccc(O)c(O)c2)(C(=O)O)CC1O (stereo not given)		Activity [1]: Toxic
O=c1c(O)cccc2cc(O)c(O)c(O)c12 [PURPUROGALLIN]		Activity [1]: Toxic
CC(=O)N1C(=O)C2(NCC(C)N2)c2ccccc21 (stereo not given)	inactive	
COC(=O)CSc1nc(N)nc2c1ncn2CC1CC1	inactive	
Oc1ccc(-c2cn(-c3ccc(O)c(C(F)(F)F)c3)nn2)cc1	Active	

Reference: ChEMBL document CHEMBL4177689, “In silico identification and in vivo characterization of small molecule therapeutic hypothermia mimetics” (Bioorg Med Chem, 2017)
